Assays:
[1] = Residual lipid levels in rat liver and spleen (UPLC-MS); format: in vivo; details: Table 19B, liver, 24 h
Method: At 48 h liver tissue was harvested for lipid quantification. To pre-weighed tissues, Milli-Q water was added (900 μL water per 100 mg tissue). Tissues were homogenized using an Omni probe homogenizer until uniform. 50 μL of samples and matrix calibration standards were aliquoted into a 96-well plate. 50 μL of blank matrix for matrix blanks and control blanks were aliquoted. 400 μL is spiking solution were manually added to all samples except matrix blanks. 400 μL of 50:50 ACN:IPA were manually added to matrix blanks. The plate was covered and the samples vortexed and centrifuged for 5 minutes at >3000 rpm. 200 μL of the samples were transferred into a clean 96-well plate for analysis. Samples were analyzed on a Waters Acquity UPLC using a Higgins Analytical Clipeus C8 column ([…], 30×2.1 mm) and a gradient of either 70-95% or 60-95% (Mobile Phase A: 5 mM ammonium formate in 50:50:1 H2O:MeOH:formic acid; Mobile Phase B: 5 mM ammonium formate in 100:1 MeOH:formic acid) over 1.3 min at 1.2 mL/min (column temperature 55° C.). Detection was based on electrospray ionization (ESI) in positive mode using a Sciex API5500 Mass Spectrometer.
(§1) The expression of hEPO in rats intravenously administered a nanoparticle composition at a dose of 0.2 mpk or 2.0 mpk was measured at 6 hours. Table 16 summarize the ratio of hEPO expression levels using various nanoparticle compositions as compared to the hEPO expression level using MC3 formulation and the lipid levels in the liver measured 48 hours after administration, as described above. Tables 17 and 18 summarize the lipid levels in the liver and spleen measured 48 hours after administration of Compounds 28, 33, 53, and 54. Liver and spleen levels represent the average values calculated for 3 rats in each group. As is shown in Tables 17 and 18, less than 10% of Compounds 28, 33, 53, and 54 remained in the liver after 48 hours, while greater than 60% of MC3 remained.
(§2) 005781 The expression of hEPO and lipid levels in the liver and spleen in rats intravenously administered a nanoparticle composition at a dose of 0.2 mpk was measured at various time points. Compounds 18 and 25 were selected for comparison with MC3. Lipids were formulated according to the standard MC3 formulation described above. Rats were administered intravenously a single 0.2 mpk dose and expression monitored at 0.25, 0.5, 1, 2, 4, 8, 24, and 48 hours after administration.

[2] = Particle size and polydispersity index of nanoparticle compositions (Zetasizer Nano ZS); format: physicochemical
Method in brief: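 Zetasizer Nano ZS; samples in 1×PBS; read-out: particle size plus polydispersity index.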

luciferase (Luc) mRNA [3] = assay: Luc expression, whole body bioluminescence after intravenous administration to mice; format: in vivo; details: Table 3E; intravenous
Method in brief: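 Bioluminescence, read as region-of-interest total flux at 3, 6 and 24 h, followed a single 0.5 mg/kg intravenous dose of Luc mRNA-loaded nanoparticles in mice (n=6). Luciferin substrate (200 μL, 15 mg/mL in PBS) was injected intraperitoneally into CD-1 mice 15 minutes ahead of each imaging point.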

[4] = Apparent (surface) pKa of the LNP formulation (TNS assay); format: physicochemical; details: for pKa: Table 1A; for App. pKa: Table 3F
Method in brief: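 Fluorescence of TNS probe added to LNP samples (mRNA 0.04 mg/mL) was read across 21 buffers of pH about 3-12, triplicate per pH. The inflection point of the sigmoidal fluorescence-vs-pH curve, […], gives apparent pKa; method validated in 1× PBS and Tris/sucrose buffer.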

hEPO mRNA [5] = assay: hEPO expression after intravenous administration to rats; format: in vivo, rat; details: Table 19B; for [hEPO]: species, dose and time not given
Method: The expression of hEPO and cytokine induction in rats intravenously administered a nanoparticle composition at a dose of 2.0 mpk was measured at 6 h.
as §1
The expression of hEPO induced by intravenous administration to rats of nanoparticle compositions at various doses was measured at 2, 4, 6, 8, 24, and 48 hour time points. FIGS. 3-6 respectively summarize the hEPO expression measured upon intravenous administration of formulations including Compounds 26, 18, 25, and MC3 to rat at various doses. The lipid levels of Compound 26 in the liver after 48 hours were about 19%.
as §2
(§3) Blood collection and analysis for hEPO. Blood was collected from mice or rats via the tail vein and hEPO concentrations were determined using a hEPO ELISA assay.

[6] = Encapsulation efficiency of RNA (QUANT-IT RIBOGREEN RNA assay); format: physicochemical
Method in brief: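 RiboGreen fluorescence (ex ~480, em ~520 nm) compared between intact samples and Triton X-100-lysed samples after 15 min at 37 °C in TE buffer, pH 7.5. Percent free RNA is the blank-corrected intact/disrupted ratio.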

[7] = Lipid clearance: lipid level in mouse liver tissue (LC-MS/MS); format: in vivo; details: Table 3E, mouse liver
luciferase (Luc) mRNA [8] = assay: Luc expression (total flux) after intramuscular administration; format: in vivo, mice; details: for Novel lipid/MC3 expression ratio, 6 hr. time point, i.m. Luc: intramuscular, relative to MC3 formulation; for i.m. Lipid/MC3 0.01 mpk, Luc, 6 h: Table 3B
Method in brief: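 Total-flux luciferase signal in mice after one intramuscular injection. Nanoparticle formulations contained modified Luc mRNA, either alone or co-dosed with H10 mRNA (e.g., 0.0005 or 0.005 mpk of each), giving 0.001 or 0.01 mpk.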

hEPO mRNA [9] = assay: hEPO expression after intramuscular administration to mice; format: in vivo; details: Table 3I, hEPO
Method: The expression of hEPO and cytokine induction in mice intravenously administered a nanoparticle composition at a dose of 0.5 mpk were measured at 3, 6, and 24 hours. […] The expression of hEPO in mice intramuscularly administered a nanoparticle composition from Table 1B at a dose of 0.01 mpk were measured at 3, 6, and 24 hours.
as §3

hEPO mRNA [10] = assay: hEPO expression after subcutaneous administration to mice; format: in vivo, female CD-1 mice; details: relative to MC3
Method: (§4) The effect of the lipids of the disclosure on protein expression upon subcutaneous administration was studied. Formulations containing lipids of the disclosure and an mRNA expressing luciferase or hEPO were administered subcutaneously to female CD-1 mice at 0.5 mpk. Expression levels were obtained via whole body luminescent imaging (BLI) at 3, 6 and 24 hours after injection and expression levels in liver, spleen and at the injection site were evaluated ex vivo after 24 hours. […] See also Tables 35 and 36, and FIGS. 19 and 27.
Table 36 summarizes the hEPO expression levels using various nanoparticle compositions of the disclosure as compared to the hEPO expression level using a formulation containing MC3 or Compound 18, following subcutaneous administration, as described above.

luciferase mRNA = assay: Luciferase expression after subcutaneous administration to mice; format: in vivo, female CD-1 mice; details: 0.5 mpk, relative to MC3
Method: as §4
Table 35 summarizes the luciferase expression levels using various nanoparticle compositions of the disclosure, and the luciferase expression levels using various nanoparticle compositions of the disclosure as compared to the luciferase expression level using an MC3 formulation after subcutaneous administration, as described above.

[11] = Table 1A, lipid:DSPC:cholesterol:PEG-DMG 50:10:38.5:1.5 mol %
[12] = Table 1B, formulated with hEPO mRNA
[13] = Table 1D, for subcutaneous administration, # formulated with hEPO mRNA
[14] = Table 1E, compositions for subcutaneous administration

| PDI ([2]; Table 1A) | Size (nm) [2, 11] | pKa [4] | EE (%) ([6]; Table 1A) | App. pKa [4] | SMILES | Lipid/MC3 6 h timepoint (hEPO mRNA [9]) | Lipid/MC3 AUC (hEPO mRNA [9]) | i.m. Lipid/MC3 0.01 mpk, Luc, 6 h (luciferase (Luc) mRNA [8]) | also measured |
| --- | --- | --- | --- | --- | --- | --- | --- | --- | --- |
| 0.15 | 76.2 nm |  | 97.65% |  | CCCCCCCCCOC(=O)CCCCCCCN(CCCCCCCC(=O)OC(CCCCCCCC)CCCCCCCC)CCCN/C(=N/[N+](=O)[O-])NC [Compound 200, Heptadecan-9-yl (E)-8-((3-(3-methyl-2-nitroguanidino)propyl)(8-(nonyloxy)-8-oxooctyl)amino)octanoate] | 2.6 | 2.7 |  | % dose remaining, liver, 24 h [1]: 0.36%; PDI [2, 12]: 0.19; Size (nm) [2, 12]: 95.3 nm; AUC (hEPO) (hEPO mRNA [5]): 2.4e+07 pg·h/mL; Lipid/MC3 AUC (hEPO mRNA [5]; relative to MC3): 1.30; [hEPO] (hEPO mRNA [5]): 1.72e+06 pg/mL; EE (%) [6, 12]: 97.3%; Novel lipid/MC3 expression ratio, 6 hr. time point, i.m. Luc (luciferase (Luc) mRNA [8]): 8.11 |
| 0.12 | 104.2 nm | 6.90 | 94.7% |  | CCCCCCCCCOC(=O)CCCCCCCN(CCCCCCCC(=O)OC(CCCCCCCC)CCCCCCCC)CCCNC(=O)COC [Compound 178, Heptadecan-9-yl 8-((3-(2-methoxyacetamido)propyl)(8-(nonyloxy)-8-oxooctyl)amino)octanoate] | 10.4 | 9.3 |  | Novel lipid/MC3 expression ratio, 6 hr. time point, i.m. Luc (luciferase (Luc) mRNA [8]): 7.14 |
| 0.18 | 96.0 nm | 6.31 | 96.7% | 6.60 | CCCCCCCCCOC(=O)CCCCCCCN(CCCCCCCC(=O)OC(CCCCCCCC)CCCCCCCC)CCCN/C(=C/[N+](=O)[O-])NC [Compound 170, Heptadecan-9-yl (E)-8-((3-((1-(methylamino)-2-nitrovinyl)amino)propyl)(8-(nonyloxy)-8-oxooctyl)amino)octanoate] | 5.9 | 5.7 | 5.3 |  |
| 0.20 | 102.3 nm | 6.74 | 91.4% | 6.90 | CCCCCCCCCOC(=O)CCCCCCCN(CCCCCCCC(=O)OC(CCCCCCCC)CCCCCCCC)CCCN/C(=N/C#N)N(C)C [Compound 168, Heptadecan-9-yl (Z)-8-((3-(2-cyano-3,3-dimethylguanidino)propyl)(8-(nonyloxy)-8-oxooctyl)amino)octanoate] |  |  | 16.0 | PDI [2, 13]: 0.07; Size (nm) [2, 13]: 87.4 nm; PDI [2, 14]: 0.08; Size (nm) [2, 14]: 85.0 nm; Novel lipid/MC3 expression ratio, 6 hr. time point, s.c. hEPO 0.5 mpk (hEPO mRNA [10]): 2.36; % EE [6, 13]: 96.1%; % EE [6, 14]: 95%; Novel lipid/MC3 expression ratio, 6 hr. time point, s.c. Luc 0.5 mpk (luciferase mRNA): 0.58; flux measured at 6 h relative to the MC3 formulation (luciferase (Luc) mRNA [8]; intramuscular administration (i.m.), in words): sixteen |

The remaining lines, values behind:

| SMILES | PDI ([2]; Table 1A) | Size (nm) [2, 11] | pKa [4] | EE (%) ([6]; Table 1A) | App. pKa [4] | Lipid/MC3 6 h timepoint (hEPO mRNA [9]) | Lipid/MC3 AUC (hEPO mRNA [9]) | i.m. Lipid/MC3 0.01 mpk, Luc, 6 h (luciferase (Luc) mRNA [8]) | also measured |
| --- | --- | --- | --- | --- | --- | --- | --- | --- | --- |
| CCCCCCCCC(CCCCCCCC)OC(=O)CCCCCCCN(CCO)CCCCCCCC(=O)OCC(C)CCCCCCC (centres unmarked) [Compound 184, Heptadecan-9-yl 8-((2-hydroxyethyl)(8-((2-methylnonyl)oxy)-8-oxooctyl)amino)octanoate] | 0.13 | 77.2 nm | 6.47 | 94.2% |  |  |  |  | % dose remaining, liver, 24 h [1]: 0.04%; PDI [2, 12]: 0.16; Size (nm) [2, 12]: 85.8 nm; 6 h BLI Lipid/MC3 (luciferase (Luc) mRNA [3]): 7.46; AUC (hEPO) (hEPO mRNA [5]): 1.41e+08 pg·h/mL; Lipid/MC3 ([hEPO] ratio) (hEPO mRNA [5]; relative to MC3): 7.13; Lipid/MC3 AUC (hEPO mRNA [5]; relative to MC3): 7.64; [hEPO] (hEPO mRNA [5]): 1.05e+07 pg/mL; EE (%) [6, 12]: 96.5%; % Remaining dose at 6 h ([7]; 6 h): 0.282%; % Remaining dose at 24 h ([7]; 24 h): 0% |
| CCCCCCCCCOC(=O)CCCCCCCN(CCCCCCCC(=O)OC(CCCCCCCC)CCCCCCCC)CCNC(C)=O [Compound 244, Heptadecan-9-yl 8-((2-acetamidoethyl)(8-(nonyloxy)-8-oxooctyl)amino)octanoate] |  |  |  |  |  | 0.4 | 0.4 |  |  |
| CCCCCCCCCOC(=O)CCCCCCCN(CCCCCCCC(=O)OC(CCCCCCCC)CCCCCCCC)CCCNC(=O)C(C)C [Compound 194, Heptadecan-9-yl 8-((3-isobutyramidopropyl)(8-(nonyloxy)-8-oxooctyl)amino)octanoate] |  |  |  |  |  | 5.5 | 6.2 |  |  |
| CCCCCCCCCOC(=O)CCCCCCCN(CCCCCCCC(=O)OC(CCCCCCCC)CCCCCCCC)CCCNc1c(NC)c(=O)c1=O [Compound 182, Heptadecan-9-yl 8-((3-((2-(methylamino)-3,4-dioxocyclobut-1-en-1-yl)amino)propyl)(8-(nonyloxy)-8-oxooctyl)amino)octanoate] | 0.14 | 84.4 nm | 6.48 | 99.0% |  | 1.6 | 1.2 |  |  |
| CCCCCCCCCOC(=O)CCCCCCCN(CCCCCCCC(=O)OC(CCCCCCCC)CCCCCCCC)CCCNc1c(N(C)C)c(=O)c1=O [Compound 169, Heptadecan-9-yl 8-((3-((2-(dimethylamino)-3,4-dioxocyclobut-1-en-1-yl)amino)propyl)(8-(nonyloxy)-8-oxooctyl)amino)octanoate] | 0.17 | 87.4 nm | 6.77. | 99.4% | 7.63 | 4.6 | 4.7 | 3.3 |  |
| CCCCCCCCCOC(=O)CCCCCCCN(CCCCCCCC(=O)OC(CCCCCCCC)CCCCCCCC)CCCNC(=N)N [Compound 207, Heptadecan-9-yl 8-((3-guanidinopropyl)(8-(nonyloxy)-8-oxooctyl)amino)octanoate] |  |  |  |  |  |  |  |  | PDI [2, 13]: 0.22; Size (nm) [2, 13]: 81.4 nm; Novel lipid/MC3 expression ratio, 6 hr. time point, s.c. hEPO 0.5 mpk (hEPO mRNA [10]): 0; % EE [6, 13]: 102% |
